Laboratory results published in patent US4863951A, “Pharmacologically active amino-5,6,7,8-tetrahydronaphtho [2,3-B] furan compounds” (ADIR Et Cie, priority 1987, dated 1989).
Structures can show the parent of a compound that is named as a salt. Where two headings read alike, the source gives them in different places.

Assays:
[1] = test system: apomorphine-induced rearing-up; assay: Antagonism of apomorphine-induced rearing-up behavior in mice; type: in vivo; details: Mus musculus, ip, apomorphine 0.75 mg.kg^-1 s.c.
Method: Studied in the test of antagonism of apomorphine-induced rearing-up following the subcutaneous administration of a dose of 0.75 mg.kg^-1 of this substance in mice, the compounds of general formula I act in a clear-cut manner at doses greater than or equal to 2.5 mg.kg^-1 (i.p.). The same results are observed when the compounds of general formula I are administered orally at a dose of 20 mg.kg^-1. The activity of the compounds was assessed according to the method described by Protais P, Costentin J and Schwartz J. C. in Psychopharmacology (1976), 50, p. 1-6.
(s=significant difference, p<0.05).

[2] = test system: apomorphine-induced stereotypy; assay: Antagonism of apomorphine-induced stereotypy in rats; type: in vivo; details: Rattus norvegicus, ip, 0.5 h, apomorphine 1.5 mg.kg^-1 i.p., 30 minutes
Method: The inhibitory activity of the compounds of the invention with respect to apomorphine- or amphetamine-induced stereotypy in rats was assessed using the scale of scoring of stereotyped movements described by Quinton R. M. and Halliwell G. in Nature (1963), 200, p. 178-179.
Apomorphine or amphetamine was administered to the animals intraperitoneally at a dose of 1.5 mg.kg^-1. The percentage inhibition (-) or potentiation (+) of the stereotypy score (% ISS) shown in Tables IV and V for apomorphine corresponds to a measurement time of 30 minutes. In contrast, the percentage inhibition of the stereotypy score shown in Table VI for amphetamine corresponds to a measurement time of 3 hours. […]

[3] = test system: isolation-induced aggression; assay: Antiaggressive effects: isolation-induced aggression in mice; type: in vivo; details: isolated mice, i.p.
Excerpt: (§1) The antiaggressive effects of the compounds of the invention were investigated by two methods, one of them testing for an inhibition of aggressive behavior in peviously isolated mice (Yen C. Y., Stanger A. L., and Millman N, Arch. Int. Pharmacodyn. Therap. (1959), 123, p. 179-185), and the other in isolated and bulbectomized rats (Garattini S. and Sigg E. B. "Aggressive Behaviour" p. 47-55 Ed. Excerpta Medica Found., Amsterdam, 1969).
(§2) (Tables IX and X, s=significant, p<0.05).

[4] = test system: reserpine-induced hypothermia; assay: Antagonism of reserpine-induced hypothermia; type: in vivo, Swiss CD male mice; details: mice, reserpine 2.5 mg.kg^-1 i.p.
Method: The antidepressant effects of the compounds of the invention were investigated by assessing the antagonism of reserpine-induced hypothermia and the antagonism of the ponto-geniculo-occipital waves induced by the compound Ro4-1284 in cats.
The study is carried out on Swiss CD male mice (27-28 g). After distribution into groups of 10 animals each, reserpine is injected intraperitoneally at a dose of 2.5 mg.kg^-1. Three hours later, the compounds undergoing trial are administered intraperitoneally. The rectal temperature of the animals is measured one hour and two hours after the second treatment, and compared with the initial temperature To of these same animals, measured immediately before the administration of the compounds undergoing trial.

[5] = test system: aggression of isolated, bulbectomized rats; assay: Antiaggressive effects: aggression of isolated, bulbectomized rats; type: in vivo; details: i.p., 5 mg.kg^-1, hydrochloride
Excerpt: as §1, §2

[6] = test system: apomorphine-induced hypothermia; assay: Antagonism with respect to apomorphine-induced hypothermia in mice; type: in vivo; details: Mus musculus, ip, apomorphine 1 mg.kg^-1 s.c., after 2 hours
Method: Testing for an antagonism with respect to apomorphine-induced hypothermia in mice was performed according to the method described by CHERMAT R. and PONCELET M. in J. Pharmac. (1983), 14, No. 1, p. 93-97. The dose of apomorphine administered subcutaneously was 1 mg.kg^-1. Tables VII and VIII show the percentage antagonism of the hypothermia observed after 2 hours.

[7] = read-out: % inhibition of rearing-up, mice, i.p. dose 20 mg.kg^-1
[8] = read-out: % inhibition of rearing-up, mice, i.p. dose 40 mg.kg^-1
[9] = rats, i.p. dose 10 mg.kg^-1, read-out: % ISS (inhibition (-) or potentiation (+) of the stereotypy score)
[10] = rats, i.p. dose 20 mg.kg^-1, read-out: % ISS (inhibition (-) or potentiation (+) of the stereotypy score)
[11] = read-out: % inhibition of rearing-up, mice, i.p. dose 10 mg.kg^-1
[12] = read-out: % ISS (inhibition (-) or potentiation (+) of the stereotypy score), rats, i.p. dose 10 mg.kg^-1
[13] = 2 h, read-out: % antagonism of hypothermia, mice, i.p. dose 10
[14] = 2 h, read-out: % antagonism of hypothermia, mice, i.p. dose 20
[15] = mice, i.p. dose 20 mg.kg^-1, read-out: % inhibition of rearing-up
[16] = mice, i.p. dose 40 mg.kg^-1, read-out: % inhibition of rearing-up
[17] = mice, i.p. dose 10, read-out: % antagonism of hypothermia
[18] = mice, i.p. dose 20, read-out: % antagonism of hypothermia
[19] = mice, i.p. dose 10 mg.kg^-1, read-out: % inhibition of rearing-up

## NC1CCCc2cc3c(cc21)OCC3 (racemic) [Example 15, dl-8-Amino-2,3,5,6,7,8-hexahydronaphtho[2,3-b]furan hyrochloride]
[1]; [7]
  change in vivo at 20 mg/kg: -9%
[1]; [8]
  change in vivo at 40 mg/kg: 0%

## O=C1CCCN1C1CCc2cc3c(cc2C1)OCC3 (racemic) [Example 37, dl-7-(2-Oxo-1-pyrrolidinyl)-2,3,5,6,7,8-hexahydronaphtho[2,3-b]furan]
[2]; [9]
  change in vivo at 10 mg/kg: -6%
[2]; [10]
  change in vivo at 20 mg/kg: -14%

## NC1CCc2cc3ccoc3cc2C1 (racemic) [Example 21, dl-7-Amino-5,6,7,8-tetrahydronaphtho[2,3-b]furan hydrochloride]
[1]; [11]
  change in vivo at 10 mg/kg: -56%
[1]; [7]
  change in vivo at 20 mg/kg: -84%

## CNC1CCc2cc3c(cc2C1)OCC3 (stereo not drawn) [Example 39, l-7-(N-Methylamino)-2,3,5,6,7,8-hexahydronaphtho[2,3-b]furan hydrochloride]
[3]; 2.5 mg.kg^-1
  % of pairs of mice showing no sign of fighting: 70%
[3]; 5 mg.kg^-1, hydrochloride
  % of pairs of mice showing no sign of fighting: 90%
[4]; 2.5 mg.kg^-1 i.p., hydrochloride
  % inhibition of hypothermia: +37%
[4]; 5 mg.kg^-1 i.p., hydrochloride
  % inhibition of hypothermia: +14%
[4]; 10 mg.kg^-1 i.p., hydrochloride
  % inhibition of hypothermia: +6%
[4]; 20 mg.kg^-1 i.p.
  % inhibition of hypothermia: +15%
[5]
  % of rats rendered non-aggressive: 58%

## NC1CCc2cc3c(cc2C1)CCO3 (racemic) [Example 19, dl-6-Amino-2,3,5,6,7,8-hexahydronaphtho[2,3-b]furan hydrochloride]
[1]; [7]
  change in vivo at 20 mg/kg: -57%
[1]; [8]
  change in vivo at 40 mg/kg: -90%

## CCCNC1CCc2cc3c(cc2C1)OCC3 (racemic) [Example 34, dl-7-N-n-Propylamino)-2,3,5,6,7,8-hexahydronaphtho[2,3,-b]furan hydrochloride]
[1]; [11]
  change in vivo at 10 mg/kg: -23%
[1]; [8]
  change in vivo at 40 mg/kg: -100%
[2]; [12]
  change in vivo at 10 mg/kg: -68%
[2]; read-out: % ISS (inhibition (-) or potentiation (+) of the stereotypy score), rats, i.p. dose 20 mg.kg^-1
  change in vivo at 20 mg/kg: -70%
[6]; [13]
  change in vivo at 10 mg/kg: -7%
[6]; [14]
  change in vivo at 20 mg/kg: -16%

## OCCCCCCNC1CCc2cc3c(cc2C1)OCC3 (racemic) [Example 32, dl-7-[N-(6-Hydroxyhexyl)amino]-2,3,5,6,7,8-hexahydronaphtho[2,3-b]furan hydrochloride]
[3]; 5 mg.kg^-1
  % of pairs of mice showing no sign of fighting: 10%
[3]; 20 mg.kg^-1
  % of pairs of mice showing no sign of fighting: 30%
[1]; [15]
  change in vivo at 20 mg/kg: -32%
[1]; [16]
  change in vivo at 40 mg/kg: -40%
[2]; [9]
  change in vivo at 10 mg/kg: -3%
[2]; [10]
  change in vivo at 20 mg/kg: -5%
[6]; [17]
  change in vivo at 10 mg/kg: -10%
[6]; [18]
  change in vivo at 20 mg/kg: -13%
[4]; 10 mg.kg^-1 i.p.
  % inhibition of hypothermia: -1%
[4]; 20 mg.kg^-1 i.p.
  % inhibition of hypothermia: -29%

## FC(F)(F)CNC1CCc2cc3c(cc2C1)OCC3 (racemic) [Example 35, dl-7-[N-(2,2,2-Trifluoroethyl)amino]-2,3,5,6,7,8-hexahdronaphtho[2,3-b]furan hydrochloride]
[1]; [19]
  change in vivo at 10 mg/kg: -30%
[1]; [15]
  change in vivo at 20 mg/kg: -38%
[6]; [17]
  change in vivo at 10 mg/kg: -16%
[6]; [18]
  change in vivo at 20 mg/kg: -31%
[4]; 10 mg.kg^-1 i.p.
  % inhibition of hypothermia: -20%
[4]; 20 mg.kg^-1 i.p.
  % inhibition of hypothermia: -4%

## CC(CCCCC(=O)O)NC1CCc2cc3c(cc2C1)OCC3 (racemic) [Example 29, dl-6-{N-(2,3,5,6,7,8-Hexahydronaphtho[2,3-b]furan-7-yl)amino}-6-methylhexanoic acid hydrochloride]
[2]; [9]
  change in vivo at 10 mg/kg: 11%

## CN(CC1CCCCC1)C1CCc2cc3c(cc2C1)OCC3 (racemic) [Example 10, dl-7-(N-Cyclohexylmethyl-N-methylamino)-2,3,5,6,7,8-hexahydronaphtho[2,3-b]furan hydrochloride]
[3]; 5 mg.kg^-1
  % of pairs of mice showing no sign of fighting: 0%
[3]; 10 mg.kg^-1
  % of pairs of mice showing no sign of fighting: 11%
[3]; 20 mg.kg^-1
  % of pairs of mice showing no sign of fighting: 60%
[1]; [11]
  change in vivo at 10 mg/kg: 11%
[1]; [7]
  change in vivo at 20 mg/kg: 11%
[1]; [8]
  change in vivo at 40 mg/kg: -96%

## O=C(O)CCCCCNC1CCc2cc3c(cc2C1)OCC3 (racemic) [Example 25, dl-6-{N-(2,3,6,7,8-Hexahydronaphtho[2,3-b]furan-7-yl)amino}hexanoic acid hydrochloride]
[3]; 10 mg.kg^-1
  % of pairs of mice showing no sign of fighting: 20%
[2]; [9]
  change in vivo at 10 mg/kg: 9%

## CC(CCCC(=O)O)NC1CCc2cc3c(cc2C1)OCC3 (racemic) [Example 27]
[1]; [19]
  change in vivo at 10 mg/kg: -46%
[1]; [15]
  change in vivo at 20 mg/kg: -63%
[2]; [9]
  change in vivo at 10 mg/kg: -5%
[2]; [10]
  change in vivo at 20 mg/kg: -8%
[6]; [17]
  change in vivo at 10 mg/kg: -5%
[6]; [18]
  change in vivo at 20 mg/kg: -32%
[4]; 10 mg.kg^-1 i.p.
  % inhibition of hypothermia: -13%
[4]; 20 mg.kg^-1 i.p.
  % inhibition of hypothermia: -21%

## CC(CCCCCC(=O)O)NC1CCc2cc3c(cc2C1)OCC3 (racemic) [Example 31, dl-7-{N-(2,3,5,6,7,8-Hexahydronaphtho[2,3-b]furan-7-yl)amino}-7-methylheptanoic acid hydrochloride]
[1]; [15]
  change in vivo at 20 mg/kg: 5%
[1]; [16]
  change in vivo at 40 mg/kg: 22%
[2]; [9]
  change in vivo at 10 mg/kg: 5%
[2]; [10]
  change in vivo at 20 mg/kg: -3%

## CCCN(CCC)C1CCc2cc3c(cc2C1)OCC3 (racemic) [Example 5, dl-7-(N,N-Dipropylamino)-2,3,5,6,7,8-hexahydronaphtho[2,3-b]furan]
[3]; 20 mg.kg^-1
  % of pairs of mice showing no sign of fighting: 50%
[3]; 40 mg.kg^-1
  % of pairs of mice showing no sign of fighting: 89%
[1]; [7]
  change in vivo at 20 mg/kg: 27%
[1]; [8]
  change in vivo at 40 mg/kg: -54%
[2]; read-out: % ISS (inhibition (-) or potentiation (+) of the stereotypy score), rats, i.p. dose 5 mg.kg^-1
  change in vivo at 5 mg/kg: -3%
[2]; [12]
  change in vivo at 10 mg/kg: 0%
[6]; 2 h, read-out: % antagonism of hypothermia, mice, i.p. dose 5
  change in vivo at 5 mg/kg: -20%
[6]; [13]
  change in vivo at 10 mg/kg: -47%
[6]; [14]
  change in vivo at 20 mg/kg: -68%

## NC1CCCc2cc3c(cc21)CCO3 (racemic) [Example 18, dl-5-Amino-2,3,5,6,7,8-hexahydronaphtho[2,3,-b]furan hydrochloride]
[1]; [7]
  change in vivo at 20 mg/kg: -12%
[1]; [8]
  change in vivo at 40 mg/kg: 6%
